Where “and” joins values, the source holds several entries; their conditions need not be identical. Identical values can stand only once.
Legend:
[1] = Metabolic stability in human microsomes; type: in vitro ADME; conditions: human, pooled human microsomes, pH 7.4, 250 nM compound, NADPH, 37 °C
[2] = test system: Ba/F3 ROS1-G2032R; assay: Antiproliferation assay; type: cell-based, mouse; conditions: Mus musculus, BaF3; Ba/F3 cells, cell growth inhibition, 72 h
[3] = molecular target: ALK (Homo sapiens, UniProt Q9UM73); assay: Kinase assay; type: biochemical; conditions: average of duplicate measurements
[4] = molecular target: ROS1 (G2101A) (Homo sapiens, UniProt P08922, G2101A); assay: Kinase assay; type: biochemical; conditions: average of duplicate measurements
ROS1 (G2101A), sequence (P08922 28-2347 G2101A): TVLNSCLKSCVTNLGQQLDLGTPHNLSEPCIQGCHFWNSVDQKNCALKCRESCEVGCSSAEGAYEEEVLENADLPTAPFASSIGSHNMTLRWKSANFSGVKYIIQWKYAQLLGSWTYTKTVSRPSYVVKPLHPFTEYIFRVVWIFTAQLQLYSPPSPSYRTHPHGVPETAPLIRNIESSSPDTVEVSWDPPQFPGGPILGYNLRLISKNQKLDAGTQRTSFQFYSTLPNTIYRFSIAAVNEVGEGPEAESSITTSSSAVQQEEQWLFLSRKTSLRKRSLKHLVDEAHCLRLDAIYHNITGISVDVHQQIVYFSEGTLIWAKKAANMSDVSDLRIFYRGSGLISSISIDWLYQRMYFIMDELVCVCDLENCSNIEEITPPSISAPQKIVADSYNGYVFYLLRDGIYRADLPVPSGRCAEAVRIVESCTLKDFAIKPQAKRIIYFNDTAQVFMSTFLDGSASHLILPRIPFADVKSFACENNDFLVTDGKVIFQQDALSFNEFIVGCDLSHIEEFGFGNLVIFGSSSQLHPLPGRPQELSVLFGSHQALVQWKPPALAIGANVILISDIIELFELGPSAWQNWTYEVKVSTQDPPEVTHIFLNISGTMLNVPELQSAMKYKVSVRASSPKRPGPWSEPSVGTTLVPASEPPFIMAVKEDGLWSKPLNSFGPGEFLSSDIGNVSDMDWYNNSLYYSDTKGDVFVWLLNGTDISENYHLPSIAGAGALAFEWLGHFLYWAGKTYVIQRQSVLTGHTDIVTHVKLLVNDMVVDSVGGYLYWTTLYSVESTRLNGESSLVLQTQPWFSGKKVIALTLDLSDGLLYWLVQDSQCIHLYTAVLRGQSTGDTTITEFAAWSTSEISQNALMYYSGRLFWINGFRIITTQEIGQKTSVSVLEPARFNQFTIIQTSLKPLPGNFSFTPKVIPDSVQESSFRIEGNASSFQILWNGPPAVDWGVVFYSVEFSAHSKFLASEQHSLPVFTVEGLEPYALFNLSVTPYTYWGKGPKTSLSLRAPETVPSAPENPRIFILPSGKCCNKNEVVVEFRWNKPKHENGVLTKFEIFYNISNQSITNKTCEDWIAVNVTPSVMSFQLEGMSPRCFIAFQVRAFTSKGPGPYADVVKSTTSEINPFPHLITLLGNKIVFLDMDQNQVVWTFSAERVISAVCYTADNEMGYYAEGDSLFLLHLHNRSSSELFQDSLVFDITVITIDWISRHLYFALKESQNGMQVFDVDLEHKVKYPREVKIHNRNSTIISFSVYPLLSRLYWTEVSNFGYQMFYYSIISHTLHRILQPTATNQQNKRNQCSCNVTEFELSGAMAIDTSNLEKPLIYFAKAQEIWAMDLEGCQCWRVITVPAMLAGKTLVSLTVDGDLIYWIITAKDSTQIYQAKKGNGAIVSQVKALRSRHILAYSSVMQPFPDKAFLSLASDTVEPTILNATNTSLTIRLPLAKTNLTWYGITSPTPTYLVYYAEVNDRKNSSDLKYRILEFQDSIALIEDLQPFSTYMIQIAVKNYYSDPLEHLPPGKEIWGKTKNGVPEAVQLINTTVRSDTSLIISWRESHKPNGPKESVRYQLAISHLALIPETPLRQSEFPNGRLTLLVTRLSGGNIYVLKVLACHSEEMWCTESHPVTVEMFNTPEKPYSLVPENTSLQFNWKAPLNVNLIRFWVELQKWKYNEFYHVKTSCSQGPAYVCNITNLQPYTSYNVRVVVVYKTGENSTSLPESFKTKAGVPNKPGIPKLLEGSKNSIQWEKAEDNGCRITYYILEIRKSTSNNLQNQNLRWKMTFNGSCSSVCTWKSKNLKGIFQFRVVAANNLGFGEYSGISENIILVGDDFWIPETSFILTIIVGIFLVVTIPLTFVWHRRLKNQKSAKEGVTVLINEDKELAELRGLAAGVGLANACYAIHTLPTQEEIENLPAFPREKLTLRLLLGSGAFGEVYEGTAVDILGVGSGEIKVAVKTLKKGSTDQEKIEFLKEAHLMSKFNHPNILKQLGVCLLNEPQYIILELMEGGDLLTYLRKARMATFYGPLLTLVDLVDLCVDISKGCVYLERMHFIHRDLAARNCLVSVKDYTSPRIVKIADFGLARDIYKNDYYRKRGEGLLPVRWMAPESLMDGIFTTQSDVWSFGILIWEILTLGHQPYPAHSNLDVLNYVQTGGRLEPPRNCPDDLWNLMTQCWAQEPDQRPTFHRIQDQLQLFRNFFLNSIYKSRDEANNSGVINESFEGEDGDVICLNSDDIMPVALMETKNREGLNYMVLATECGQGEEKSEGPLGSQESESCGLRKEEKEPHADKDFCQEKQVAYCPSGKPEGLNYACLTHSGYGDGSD

[5] = molecular target: RET (Homo sapiens, UniProt P07949); assay: Kinase assay; type: biochemical; conditions: average of duplicate measurements
RET, sequence (P07949 29-1114, species assumed): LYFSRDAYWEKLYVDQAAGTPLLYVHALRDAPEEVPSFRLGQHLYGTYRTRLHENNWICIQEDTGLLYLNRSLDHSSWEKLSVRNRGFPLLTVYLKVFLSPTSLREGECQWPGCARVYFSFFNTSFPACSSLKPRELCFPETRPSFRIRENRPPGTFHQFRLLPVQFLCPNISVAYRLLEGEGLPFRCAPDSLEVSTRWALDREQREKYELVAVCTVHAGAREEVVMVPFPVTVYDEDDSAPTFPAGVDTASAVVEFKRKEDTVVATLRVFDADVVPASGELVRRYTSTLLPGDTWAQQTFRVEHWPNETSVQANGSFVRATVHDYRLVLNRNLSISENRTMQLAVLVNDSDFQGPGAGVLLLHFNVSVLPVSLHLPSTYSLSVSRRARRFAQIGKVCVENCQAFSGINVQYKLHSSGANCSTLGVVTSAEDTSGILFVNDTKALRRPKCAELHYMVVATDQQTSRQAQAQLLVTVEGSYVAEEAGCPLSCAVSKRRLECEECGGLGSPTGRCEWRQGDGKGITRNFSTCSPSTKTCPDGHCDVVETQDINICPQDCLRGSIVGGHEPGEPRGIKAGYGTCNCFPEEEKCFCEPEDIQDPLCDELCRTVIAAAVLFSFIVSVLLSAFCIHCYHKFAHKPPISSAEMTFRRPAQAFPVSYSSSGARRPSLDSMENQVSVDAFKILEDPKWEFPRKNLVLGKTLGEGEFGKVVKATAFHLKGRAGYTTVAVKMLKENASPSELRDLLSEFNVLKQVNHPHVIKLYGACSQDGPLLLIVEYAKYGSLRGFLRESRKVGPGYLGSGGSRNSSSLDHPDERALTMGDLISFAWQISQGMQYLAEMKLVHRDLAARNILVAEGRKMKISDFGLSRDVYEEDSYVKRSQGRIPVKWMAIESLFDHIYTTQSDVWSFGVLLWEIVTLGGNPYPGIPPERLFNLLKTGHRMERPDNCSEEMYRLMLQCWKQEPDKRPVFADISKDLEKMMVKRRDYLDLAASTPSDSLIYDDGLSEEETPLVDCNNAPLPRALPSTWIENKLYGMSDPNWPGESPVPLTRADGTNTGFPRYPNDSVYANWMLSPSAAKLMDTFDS

[6] = molecular target: FAK/PTK2 (Homo sapiens, UniProt Q05397); assay: Kinase assay; type: biochemical; conditions: average of duplicate measurements
FAK/PTK2, sequence (Q05397 whole entry): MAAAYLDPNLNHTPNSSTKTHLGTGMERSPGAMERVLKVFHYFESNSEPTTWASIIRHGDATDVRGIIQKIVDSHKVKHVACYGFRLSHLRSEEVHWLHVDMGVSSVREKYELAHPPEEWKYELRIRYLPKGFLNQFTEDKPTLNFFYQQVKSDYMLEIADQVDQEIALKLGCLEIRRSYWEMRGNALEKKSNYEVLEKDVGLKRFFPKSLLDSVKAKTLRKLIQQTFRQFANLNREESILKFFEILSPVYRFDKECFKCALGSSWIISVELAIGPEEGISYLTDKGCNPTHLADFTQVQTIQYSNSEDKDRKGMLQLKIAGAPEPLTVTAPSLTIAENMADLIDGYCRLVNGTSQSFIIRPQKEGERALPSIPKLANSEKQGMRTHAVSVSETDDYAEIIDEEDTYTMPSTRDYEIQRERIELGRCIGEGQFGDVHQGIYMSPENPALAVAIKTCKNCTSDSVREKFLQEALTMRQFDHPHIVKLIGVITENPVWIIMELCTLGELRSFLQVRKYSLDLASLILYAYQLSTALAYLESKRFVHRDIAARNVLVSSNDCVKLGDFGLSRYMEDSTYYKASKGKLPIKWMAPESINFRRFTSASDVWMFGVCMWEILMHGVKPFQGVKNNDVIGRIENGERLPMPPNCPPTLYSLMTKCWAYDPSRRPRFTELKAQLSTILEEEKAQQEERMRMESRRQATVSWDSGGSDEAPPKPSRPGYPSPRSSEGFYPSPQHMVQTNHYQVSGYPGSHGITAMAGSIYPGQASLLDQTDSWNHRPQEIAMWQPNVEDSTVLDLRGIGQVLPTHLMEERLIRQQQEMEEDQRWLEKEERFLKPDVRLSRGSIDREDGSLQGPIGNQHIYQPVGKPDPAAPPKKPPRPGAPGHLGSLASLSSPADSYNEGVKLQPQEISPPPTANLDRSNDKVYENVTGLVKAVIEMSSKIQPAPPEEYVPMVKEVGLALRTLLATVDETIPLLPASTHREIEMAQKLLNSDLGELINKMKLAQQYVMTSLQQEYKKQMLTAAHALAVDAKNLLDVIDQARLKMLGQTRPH

[7] = molecular target: CHEK2 (Homo sapiens, UniProt O96017); assay: Kinase assay; type: biochemical; conditions: average of duplicate measurements
CHEK2, sequence (O96017 whole entry, species assumed): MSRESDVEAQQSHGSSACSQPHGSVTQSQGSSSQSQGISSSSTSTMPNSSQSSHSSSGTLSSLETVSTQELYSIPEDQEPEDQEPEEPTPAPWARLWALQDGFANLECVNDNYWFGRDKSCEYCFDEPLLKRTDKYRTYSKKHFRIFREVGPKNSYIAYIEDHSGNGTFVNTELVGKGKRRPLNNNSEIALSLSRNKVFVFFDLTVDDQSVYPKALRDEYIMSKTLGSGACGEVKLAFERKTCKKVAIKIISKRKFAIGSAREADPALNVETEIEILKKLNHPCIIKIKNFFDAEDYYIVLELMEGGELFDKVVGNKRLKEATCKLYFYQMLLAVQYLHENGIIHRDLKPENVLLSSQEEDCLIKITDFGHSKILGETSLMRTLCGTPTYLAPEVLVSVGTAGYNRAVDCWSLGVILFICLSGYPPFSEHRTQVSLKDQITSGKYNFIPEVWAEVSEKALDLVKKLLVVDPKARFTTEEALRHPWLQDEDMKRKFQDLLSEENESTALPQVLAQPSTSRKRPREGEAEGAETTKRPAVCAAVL

[8] = test system: ROS1 (L2086F); assay: Degradation assay; type: cell-based; conditions: average of duplicate measurements
Experimental: However, the degradation selectivity of 9o often contrasts with its kinase binding selectivity as determined in cells treated with 9o where the kinase level was measurable by Western blot analysis. […] For example, FLT3, CHEK2, and FES, all with kinase binding at <10 nM, were only moderately or minimally degraded, if at all (Table 9).
Protein levels were analyzed using a WES instrument according to the WES User Guide from ProteinSimple in duplicate experiments. The samples were mixed with the fluorescent 5 master mix (ProteinSimple) and then heated at 95 °C for 5 min. Boiled samples, biotinylated protein ladder, antibody diluent, Streptavidin-HRP, primary antibodies, ProteinSimple horseradish peroxidase conjugated antirabbit or antimouse secondary antibodies, luminol-peroxide, and wash buffer were loaded into the WES plate (Wes 12–230 kDa Prefilled Plates with Split Buffer, ProteinSimple). The plates and capillary cartridges were loaded into the WES instrument, and protein separation, antibody incubation, and imaging were performed according to manufacturer’s instructions. Compass software (ProteinSimple) was used to acquire the data and to generate the virtual blot image reconstruction and chemiluminescence signal intensity electropherograms. […] Protein levels are expressed as the AUC of the peak chemiluminescence intensity. […]

[9] = molecular target: LTK (Homo sapiens, UniProt P29376); assay: Kinase assay; type: biochemical; conditions: average of duplicate measurements
[10] = Log P measurement; type: physicochemical
Source text: An important physicochemical property for a PROTAC molecule is its lipophilicity that largely dictates its pharmaceutical performance such as absorption, permeability, and distribution.

[11] = Metabolic stability in rat microsomes; type: in vitro ADME; conditions: rat, pooled rat microsomes, pH 7.4, 250 nM compound, NADPH, 37 °C
[12] = molecular target: ROS1 (L2086F) (Homo sapiens, UniProt P08922, L2086F); assay: Kinase assay; type: biochemical; conditions: average of duplicate measurements
ROS1 (L2086F) (Homo sapiens, UniProt P08922, L2086F), sequence (P08922 28-2347 L2086F): as the sequence (P08922 28-2347 G2101A) above, with L2059F, A2074G counted along it

[13] = molecular target: CHEK1 (Homo sapiens, UniProt O14757); assay: Kinase assay; type: biochemical; conditions: average of duplicate measurements

microsomal CLint at 1 h, 0.25 µM [1]: 71.1 µL/min/mg | half-life at 1 h, 0.25 µM ([1]; read-out: metabolic stability in human microsomes T1/2): 0.813 h | IC50 [2]: 6.3 ± 2.1 nM | IC50 [3]: 0.9 nM | IC50 [4]: 10.9 nM | IC50 [5]: 82 nM | IC50 [6]: 2.4 nM | IC50 [7]: < 10 nM and 3.6 nM | DC50 [8]: 5.4 nM | IC50 [9]: 54 nM | logP [10]: 2.54 | microsomal CLint at 1 h, 0.25 µM [11]: 17.4 µL/min/mg | half-life at 1 h, 0.25 µM ([11]; read-out: metabolic stability in rat microsomes T1/2): 1.33 h | IC50 [12]: 218 nM | IC50 [13]: 40 nM
Structure (SMILES): COc1cc(N2CCC(N3CCN(CC4CCN(c5ccc6c(c5)CN(C5CCC(=O)NC5=O)C6=O)CC4)CC3)CC2)ccc1Nc1ncc(Cl)c(Nc2ccccc2P(C)(C)=O)n1 (stereo not drawn) [9o, 3-(5-(4-((4-(1-(4-((5-Chloro-4-((2-(dimethylphosphoryl)phenyl)amino)pyrimidin-2-yl)amino)-3-methoxyphenyl)piperidin-4-yl)piperazin-1-yl)methyl)piperidin-1-yl)-1-oxoisoindolin-2-yl)piperidine-2,6-dione]
